Assays:
SRS-A = SRS-A antagonism in guinea-pig ileum (SRS-A-induced contraction); format: cell-based; settings: 1 min, test compound 5×10^-7 g/ml, isolated guinea-pig ileum; for inhibition at 0.5 µg/mL: Cavia porcellus
Method: (i) SRS-A antagonism in quinea-pig ileum
SRS-A antagonism was determined against the contraction induced by SRS-A in isolated guinea-pig ileum. The SRS-A was prepared in accordance with the method of Brocklehurst (J. Physiol., 151, 416, 1960) and Kohno and Parker (J. Immunol., 125, 446, 1980). Adult male guinea-pigs (200-250 g) were sensitized with chick egg albumin (EA), 100 mg subcutaneously and 100 mg intraperitoneally. Three weeks later the animals were killed by a blow on the head and lungs were perfused free of blood with Tyrode solution passed through the right ventricle. Isolated lungs were chopped into pieces (1 mm^3) by a scissors in Tyrode solution and filtrated with gauze, and then 1.0-1.3 g of chopped lung fragments were distributed into individual tubes (9.7 ml of Tyrode solution/tube). EA solution (0.3 ml) at a 3×10^-4 g/ml final concentration was added to the tubes and incubated for 20 min at 37° C., and then the supernatant was used for the SRS-A antagonism.
Assay for SRS-A antagonism was performed as follows: Ileum preparations isolated from male guinea-pig (300-400 g) were suspended under 0.5 g tension in organ baths (5 ml) containing Tyrode solution maintained at 30° C. and gassed with 95% O2 +5% CO2. After the repeated responses to histamine (10^-7 g/ml) was established, the contractile response to SRS-A (0.5 ml) was carried out in the presence of 10^-6 M atropine and 10^-6 M pyrilamine. Test compounds dissolved in 100% dimethyl sulfoxide were added to the organ baths (final concentration of 5×10^-7 g/ml) 1 min prior to the SRS-A addition, and SRS-A-induced contractions were compared with those of control (SRS-A-induced contraction before the treatment). The SRS-A antagonism (%) =[1.0 - (SRS-A-induced contraction in test compound)/control]×100

LTC4 = LTC4 antagonism in isolated guinea-pig trachea (LTC4-induced contraction); format: cell-based; settings: 5 min, test compound 10^-5 g/ml, LTC4 2×10^-8 g/ml, guinea-pig trachea; for inhibition at 10 µg/mL: Cavia porcellus, read-out: LTC4 antagonism
Method: (§1) (ii) LTC4 and LTD4 antagonisms in guinea-pig trachea
(§2) Antagonism for LTC4 and LTD4 were determined in isolated guinea-pig trachea prepared as spiral strip. 10 Tracheal preparations were suspended under 1 g tension in […] and they were incubated for 1 hr prior to use. Contractile responses to LTC4 (2×10^-8 g/ml) and LTD4 (2×10^-8 g/ml) were obtained after the maximal response to histamine (10^-4 M). Test compounds dissolved in 100% dimethyl sulfoxide were added to the organ baths (final concentration of 10^-5 g/ml) 5 min prior to LTC4 and LTD4 addition, and then contractile responses to LTC4 and LTD4 were compared with those of control which was obtained from a paired trachea in the absence of test compounds. LTC4 - and LTD4 -induced contractions were expressed as a percentage of the maximal response to histamine. The antagonism was determined as follows: Antagonism (%)=(1.0-% contraction in test/% contraction in control)×100

ddY strain male = experiment: Acute toxicity test, method-(2), intraperitoneal injection; format: in vivo, ddY strain male (4 weeks old); settings: 7 days
Method: The lethal ratio was determined in ddY strain male (4 weeks old) at 7 days after the intraperitoneal injection of test compounds.

[1] = test system: antigen-induced anaphylactic bronchoconstriction; experiment: Effect on anaphylactic bronchoconstriction in passively sensitized guinea-pig; format: in vivo; settings: 2 mg/kg, i.v.
Method: (iii) Effect on anaphylactic bronchoconstriction in passively sensitized guinea-pig
Male guinea-pigs (350-450 g) were passively sensitized with intravenous (i.v.) injection of 0.125 ml rabbit anti-EA serum (Cappel Laboratories) 1 day preceding the experiment. […] The right jugular vein was cannulated for the administration of the all agents and trachea was cannulated to record total pulmonary resistance. Guinea-pigs were artificially ventilated by a small animal respirator (Shinano, Model SN-480-7) set at a stroke volume of 4-5 ml and a rate of 50 breaths per min. […] The increase in air overflow volume was expressed as a percentage of the maximum bronchoconstriction obtained by clamping off the trachea. Following surgical preparation, the animals were pretreated with indomethacin (1.0 mg/kg, 10 min), pyrilamine (2 mg/kg, 6 min) and propranolol (0.1 mg/kg, 5 min) prior to the EA challenge (0.1 or 10 mg/kg). All test compounds, 2 mg/kg in 3% Tween 80 or 3% PEG-400, were administered 1 min before the EA challenge. Inhibition (%) of bronchoconstriction was determined as follows Inhibition (%)=(1.0% -maximum bronchoconstriction in test/% maximum bronchoconstriction in control) ×100.
In the Table, the dose of EA was 10 mg/kg, and each compound was dissolved or suspended in 3% Tween 80.
In the Table, the dose of EA was 0.1 mg/kg.
*: PEG represents polyethylene glycol400.

LTD4 = LTD4 antagonism in isolated guinea-pig trachea (LTD4-induced contraction); format: cell-based; settings: Cavia porcellus, 5 min, test compound 10^-5 g/ml, LTD4 2×10^-8 g/ml
Method: as §1, §2

[2] = EA 0.1 mg/kg, PEG (polyethylene glycol 400)

| SMILES | inhibition at 0.5 µg/mL (SRS-A) [%] | inhibition at 10 µg/mL (LTC4) [%] | inhibition at 10 µg/mL (LTD4) [%] | other results |
| --- | --- | --- | --- | --- |
| CN1CCN(C(=O)c2ccc(CNc3cnn(C(C)(C)C)c(=O)c3Cl)cc2)CC1 [compound 41] | 15 | – | – | – |
| CC(C)(C)n1ncc(NCc2ccc(N3CCOCC3)cc2)c(Cl)c1=O [compound 30] | 53 | 13 | – | – |
| CC(C)(C)n1ncc(NCc2ccc(CN3CCOCC3)cc2)c(Cl)c1=O [compound 33] | 41 | 17 | – | – |
| CCCOc1cc(CNc2cnn(C(C)C)c(=O)c2Cl)ccc1OC [Compound No. 106, 4-Chloro-5-(3-n-propoxy-4-methoxybenzylamino)-2-i-propyl-3(2H)pyridazinone] | – | 100 | 100 | Lethal ratio (Death number/Experimental number) (ddY strain male; 200 mg/kg): 0/2; Lethal ratio (Death number/Experimental number) (ddY strain male; 400 mg/kg): 0/1; Inhibition of anaphylactic bronchoconstriction ([1]; EA 0.1 mg/kg, Tween 80): 65% |
| CCOc1ccc(CNc2cnn(C(C)C)c(=O)c2Cl)cc1 [compound 91] | – | – | 93 | Lethal ratio (Death number/Experimental number) (ddY strain male; 100 mg/kg): 0/2; Inhibition of anaphylactic bronchoconstriction [1, 2]: 73% |
| COc1ccc(CNc2cnn(C(C)(C)C)c(=O)c2Cl)cc1C [Compound No. 12] | 73 | 67 | – | – |
| COc1ccc(CNc2cnn(C(C)(C)C)c(=O)c2Cl)cc1OC [Compound No. 16] | 55 | 96 | – | – |
| CCCOc1ccc(CNc2cnn(C(C)(C)C)c(=O)c2Cl)cc1 [compound 11] | 74 | 25 | – | Inhibition of anaphylactic bronchoconstriction ([1]; EA 10 mg/kg, 3% Tween 80): 21% |
| CC(C)(C)n1ncc(NCc2ccc(Cl)cc2)c(Cl)c1=O [compound 22] | 76 | 20 | – | Inhibition of anaphylactic bronchoconstriction ([1]; EA 10 mg/kg, 3% Tween 80): 23% |
| CCCOc1cc(CNc2cnn(CC)c(=O)c2Cl)ccc1OC [Compound No. 105] | – | 100 | 100 | Lethal ratio (Death number/Experimental number) (ddY strain male; 100 mg/kg): 0/2; Inhibition of anaphylactic bronchoconstriction ([1]; EA 0.1 mg/kg, Tween 80): 29% |
| CC(C)(C)n1ncc(NCc2ccc(C(=O)O)cc2)c(Cl)c1=O [Compound No. 23, 4-chloro-5-(4-carboxybenzylamino)-2-t-butyl-3(2H)pyridazinone] | 18 | – | – | – |
| CCOc1cccc(CNc2cnn(CC)c(=O)c2Cl)c1 [compound 88] | – | 81 | 95 | Lethal ratio (Death number/Experimental number) (ddY strain male; 200 mg/kg): 0/2; Lethal ratio (Death number/Experimental number) (ddY strain male; 400 mg/kg): 0/2; Inhibition of anaphylactic bronchoconstriction ([1]; EA 0.1 mg/kg, Tween 80): 45% |
| CCN1CCN(C(=O)c2ccc(CNc3cnn(C(C)(C)C)c(=O)c3Cl)cc2)CC1 [compound 42] | 14 | – | – | – |
| CCn1ncc(NCc2cccc(C)c2)c(Cl)c1=O [compound 75] | – | 100 | 90 | Lethal ratio (Death number/Experimental number) (ddY strain male; 100 mg/kg): 0/2; Inhibition of anaphylactic bronchoconstriction ([1]; EA 0.1 mg/kg, Tween 80): 57% |
| CSc1ccc(CNc2cnn(C(C)(C)C)c(=O)c2Cl)cc1 [compound 21] | 77 | 36 | – | – |
| CN(C)c1ccc(CNc2cnn(C(C)(C)C)c(=O)c2Cl)cc1 [Compound No. 25, 4-Chloro-5-(4-dimethylaminobenzylamino)-2-t-butyl-3(2H)-pyridazinone] | – | – | – | SRS-A antagonism (SRS-A): 81% |
| COc1ccccc1CNc1cnn(C(C)C)c(=O)c1Cl [compound 86] | – | 100 | 87 | Lethal ratio (Death number/Experimental number) (ddY strain male; 200 mg/kg): 0/2; Lethal ratio (Death number/Experimental number) (ddY strain male; 400 mg/kg): 0/1; Inhibition of anaphylactic bronchoconstriction ([1]; EA 0.1 mg/kg, Tween 80): 29% |
| CCOc1cc(CNc2cnn(C(C)C)c(=O)c2Cl)ccc1OC [compound 103] | – | 100 | 100 | Lethal ratio (Death number/Experimental number) (ddY strain male; 200 mg/kg): 0/2; Inhibition of anaphylactic bronchoconstriction ([1]; EA 0.1 mg/kg, Tween 80): 76% |
| CCOC(=O)c1ccc(CNc2cnn(C(C)(C)C)c(=O)c2Cl)cc1 [Compound No. 52] | 72 | – | – | Inhibition of anaphylactic bronchoconstriction ([1]; EA 10 mg/kg, 3% Tween 80): 30% |
| CCN1CCN(Cc2ccc(CNc3cnn(C(C)(C)C)c(=O)c3Cl)cc2)CC1 [compound 35] | 10 | – | – | LTC4 antagonism (LTC4): 37% |
| CN1CCN(Cc2ccc(CNc3cnn(C(C)(C)C)c(=O)c3Cl)cc2)CC1 [compound 34] | 19 | – | – | – |
| CCN(CC)Cc1ccc(CNc2cnn(C(C)(C)C)c(=O)c2Cl)cc1 [compound 32] | 18 | 20 | – | – |
| CC(C)(C)n1ncc(NCc2ccc3c(c2)OCO3)c(Cl)c1=O [compound 18] | 74 | – | – | – |
| CCOc1cccc(CNc2cnn(C(C)C)c(=O)c2Cl)c1 [Compound No. 89] | – | 89 | 95 | Lethal ratio (Death number/Experimental number) (ddY strain male; 200 mg/kg): 0/2; Lethal ratio (Death number/Experimental number) (ddY strain male; 400 mg/kg): 0/1; Inhibition of anaphylactic bronchoconstriction [1, 2]: 79% |
| Cc1cccc(CNc2cnn(C(C)(C)C)c(=O)c2Cl)c1 [Compound No. 2] | 47 | 84 | – | Inhibition of anaphylactic bronchoconstriction ([1]; EA 10 mg/kg, 3% Tween 80): 21% |
| COc1ccc(CNc2cnn(C(C)C)c(=O)c2Cl)c(OC)c1 [Compound No. 97, 4-chloro-5-(2,4-dimethoxybenzylamino)-2-i-propyl-3(2H)pyridazinone] | – | 100 | 100 | Lethal ratio (Death number/Experimental number) (ddY strain male; 200 mg/kg): 0/2; Lethal ratio (Death number/Experimental number) (ddY strain male; 400 mg/kg): 0/1; Inhibition of anaphylactic bronchoconstriction ([1]; EA 0.1 mg/kg, Tween 80): 32% |
| CC(C)c1ccc(CNc2cnn(C(C)(C)C)c(=O)c2Cl)cc1 [Compound No. 5] | 74 | 67 | – | – |
| COCCNC(=O)c1ccc(CNc2cnn(C(C)(C)C)c(=O)c2Cl)cc1 [compound 55] | 12 | 14 | – | – |
| CCn1ncc(NCc2ccc(C)cc2C)c(Cl)c1=O [compound 79] | – | – | 100 | Lethal ratio (Death number/Experimental number) (ddY strain male; 200 mg/kg): 0/2; Inhibition of anaphylactic bronchoconstriction ([1]; EA 0.1 mg/kg, Tween 80): 61% |
| CCN(CC)C(=O)c1ccc(CNc2cnn(C(C)(C)C)c(=O)c2Cl)cc1 [compound 38] | 31 | – | – | – |

Source: patent publication US5098900A, “3(2H)pyridazinone, process for its preparation and anti-allergic agent containing it” (Nissan Chemical Industries Ltd., priority 1984, dated 1992)
